The first test has as its target HLA-C*14:03 (Homo sapiens, UniProt P10321, A176E/A330V/A35S/A97T/C350S/D114A/D33S/L171W/L180R/L218V/M285V/M309V/M331V/P208H/Q277E/Q291P/R121W/R243W/R45H/S123F/S297R/S48A/T329A/T363A/V319A). Kind of test: HLA stabilization assay on RMA-S-C1403 cells. It counts as cell-based. The conditions noted are these: 100 μM peptide, 26°C 1 h then 37°C 3 h, MAb DT-9 staining, flow cytometry, triplicate assays. The text has this:
We next sought to confirm the HLA-C*14:02/C*14:03 restriction of the HIV-1 peptides identified by LC-MS/MS. First, we tested their ability to bind to HLA-C*14:02 or HLA-C*14:03 using HLA stabilization assays. Of the 25 HIV-1 peptides, three Env peptides, Env SI8, Env AM11, and Env VM9, are located in variable regions V2 and V3. In addition, Pol AF10, Pol PF8, Pol VWL9, and Env YI9 are located in regions where high sequence variation is reported in the LANL database. Therefore, we excluded these peptides from further analysis. The other 18 peptides were synthesized and tested for binding to HLA-C*14:02/C*14:03 by analyzing their ability to stabilize surface HLA expression on TAP-defective RMA-S cell lines expressing HLA-C*14:02 (RMA-S-C1402) or HLA-C*14:03 (RMA-S-C1403). These RMA-S cell lines express equivalent levels of HLA-C*14:02 and HLA-C*14:03 on the cell surface at 26°C, and surface HLA expression declines to very low levels when the cells are warmed to 37°C in the absence of exogenously added stabilizing peptides (Fig. 2A). Peptide binding was determined by evaluating whether HLA-I expression was stabilized in the presence of 100 μM peptide.
FIG 2 HLA-C*14:02/14:03 binding of HIV-1 peptides eluted from NL4-3-infected .221-C1402 and .221-C1403 cells as assessed by HLA stabilization assay using RMA-S cell lines. (A) Histogram plots showing surface expression of HLA-C*14:02 or HLA-C*14:03 on RMA-S-C1402 or RMA-S-C1403 cells at 26°C and after cells cultured at 26°C had been warmed to 37°C for 3 h. MFI values of cells cultured at 26°C were 27.4 for HLA-C*14:02 and 28.1 for HLA-C*14:03. MFI values of cells cultured at 37°C for 3 h were 5.0 for HLA-C*14:02 and 6.54 for HLA-C*14:03. (B) Analysis of binding of 14 HIV-1 NL4.3 peptides identified by LC-MS/MS to HLA-C*14:02 (blue) or HLA-C*14:03 (red) as measured in HLA class I stabilization assays using RMA-S-C1402 or RMA-S-C1403 cells. (C) Analysis of binding of 9 additional variant peptides to HLA-C*14:02 (blue) or C*14:03 (red). For panels B and C, peptides were tested at a concentration of 100 μM. Results are plotted as percent surface HLA-I expression relative to that at 26°C, calculated as the ratio of the MFI of peptide-pulsed RMA-S-C1402 or RMA-S-C1403 cells to that of control (non-peptide-pulsed) cells kept at 26°C, multiplied by 100. Means and standard deviations (SDs) from triplicate assays are shown. Statistical analyses were performed by unpaired t test. The P values were corrected for multiple testing. *, P < 0.05 and q < 0.05; **, P < 0.01 and q < 0.03; ***, P < 0.001 and q < 0.005.
The relative affinity of peptide binding to HLA-C*14:02 and -C*14:03 was examined using RMA-S-C1402 and RMA-S-C1403 cells as previously described ([15]). Briefly, RMA-S cells were cultured at 26°C for 16 h, pulsed with peptides at 26°C for 1 h, and subsequently incubated at 37°C for 3 h. Staining of cell surface HLA-C molecules was performed with the HLA-C-reactive monoclonal antibody (MAb) DT-9 ([48]), a gift from Mary Carrington, NIH, and fluorescein isothiocyanate (FITC)-conjugated sheep anti-mouse IgG (Jackson ImmunoResearch). Staining data were acquired on a FACSCanto II instrument (BD Biosciences) and analyzed using FlowJo 10.7.1 software. Relative HLA expression was calculated as the ratio of the mean fluorescence intensity (MFI) of peptide-pulsed RMA-S-C1402 cells or RMA-S-C1403 cells to that of control (non-peptide-pulsed) cells kept at 26°C, multiplied by 100 to express the values for peptide-pulsed cells as a percentage of that for the control cells at 26°C.
In the case of “ASGYIEAEV [Pol AV9, HIV-1 NL4-3 Pol 795–803 peptide …]”, the “binding to HLA-C*14:03 (stabilization of surface HLA expression)” value is “did not exhibit detectable binding”. Same read-out and setting: the value for “FFREDLAF [Pol FF8, HIV-1 NL4-3 Pol 1–8 peptide FFREDLAF]” was “low”; that for “FLGAAGSTM [Env FM9, HIV-1 NL4-3 Env 522–530 peptide …]” was “did not exhibit detectable binding”; that for “FMTKALGI [Tat FI8, HIV-1 NL4-3 Tat 38–45 peptide FMTKALGI]” was “did not exhibit detectable binding”. Still for that read-out and setting: the value for “RFDSRLAF [Nef RF8, HIV-1 NL4-3 Nef 184–191 peptide RFDSRLAF]” was “did not exhibit detectable binding”. Still for that read-out and setting: the value for “VYYDPSKDL [Pol VYL9, HIV-1 NL4-3 Pol 472–480 peptide …]” was “low”.

Staying with this test, now noted: peptide concentrations from 0.1 to 100 μM, 6 epitope peptides compared.
For AFHHVAREL [Nef AL9], the “relative affinity in hierarchy of peptide-HLA-C*14 binding (HLA-C*14:03)” value is on record as “lowest”.

For the sequence AFSPEVIPM [Gag AM9], the “relative affinity in hierarchy of peptide-HLA-C*14 binding (HLA-C*14:03)” value is given as “highest”.

The test system of a further test is NL4-3-infected .221-C1402 and .221-C1403 cells. Kind of test: ICS assay, peptide-specific bulk T cells against NL4-3-infected .221 cells. Conditions: IFN-γ ICS, p24+ cells 52% and 54%, not by uninfected .221 cells, triplicate assays. Format: cell-based, human. As for the experimental part:
We next investigated whether T cells specific for these peptides could recognize NL4-3-infected .221-C1402 or .221-C1403 cells.
FIG 5 Recognition of NL4-3-infected .221-CD4 cells by peptide-specific CD8^+ T cells. The response of bulk T cells specific for 6 peptides to NL4-3-infected .221-C1402 cells, NL4-3-infected .221-C1403 cells, NL4-3-infected 721.221 cells, uninfected .221-C1402 cells, and uninfected .221-C1403 cells was analyzed by ICS assay. The frequencies of p24^+ cells were as follows: NL4-3-infected .221-C1402 cells, 52%; NL4-3-infected .221-C1403 cells, 54%. The results are means and SDs from triplicate assays.
PBMCs from HIV-1-infected individuals were stimulated with 1 μM concentrations of the corresponding peptides and then cultured for 2 weeks in RPMI 1640 medium (Thermo Fisher) containing 10% FCS, 20 ng/mL of human recombinant interleukin 2 (rIL-2) (ProSpec), 1× minimal essential medium (MEM) nonessential amino acid solution (Gibco), and 1 mM sodium pyruvate solution (Gibco). Following T cell expansion, .221-C1402 cells or .221-C1403 cells prepulsed with each HIV-1 peptide or .221-C1402 cells or .221-C1403 cells infected with HIV-1 NL4-3 were added to a 96-well plate together with bulk-cultured T cells, and the cells were incubated for 4 h at 37°C with brefeldin A ([…]). The cells were then stained with Pacific blue (PB)-labeled anti-CD3 MAb (BioLegend), FITC-labeled anti-CD19 MAb (BioLegend), allophycocyanin (APC)-labeled anti-CD8 MAb (BioLegend), and a LIVE/DEAD fixable near-infrared (IR) dead-cell staining kit (Invitrogen) and subsequently fixed with 4% paraformaldehyde and incubated in permeabilization buffer (0.1% saponin–5% FBS–PBS). Thereafter, the cells were stained with phycoerythrin (PE)-labeled anti-IFN-γ MAb (BioLegend). Staining data were acquired on a FACSCanto II instrument (BD Biosciences) and analyzed using FlowJo 10.7.1 software.
As to AFHHVAREL [Nef AL9], the “activation of peptide-specific T cells by NL4-3-infected .221-C1402 and .221-C1403 cells” value (from here on “activation of peptide-specific T cells”) was “Strong functional activation”.

On to AFSPEVIPM [Gag AM9], for which the “activation of peptide-specific T cells” value was “Strong functional activation”. Still for that read-out and setting: the value for IYHTQGYF [Nef IF8] was “Strong functional activation”.

Consider KYHSNWRAM [Pol KM9], for which the “activation of peptide-specific T cells” value is “Strong functional activation”. Same read-out and setting: the value for LYNTIAVLY [Gag LY9] was “Strong functional activation”. Same read-out and setting: the value for YFPDWQNYT [Nef YT9] was “Strong functional activation”.

The record behind these values is article PMC9131871, “Impact of Micropolymorphism Outside the Peptide Binding Groove in the Clinically Relevant Allele HLA-C*14 on T Cell Responses in HIV-1 Infection” (Journal of Virology, 2022).
